Source: PMC10882719 (Frontiers in Neuroscience, 2024)
Read-outs that look alike come from different tables or passages of the source.

Columns and labels:
Format in all cases: cell-based
[1] = target: T1, 168 GPCRs (Homo sapiens, UniProt P41231); details: P2RY2
T1 construct: host or cells: PathHunter cell lines

[2] = target: T2, 168 GPCRs (Homo sapiens, UniProt P51582); details: P2RY4
T2 construct: host or cells: PathHunter cell lines

[3] = target: T3, 168 GPCRs (Homo sapiens, UniProt P35414)
T3 construct: host or cells: PathHunter cell lines
T3 sequence (P35414 1-380): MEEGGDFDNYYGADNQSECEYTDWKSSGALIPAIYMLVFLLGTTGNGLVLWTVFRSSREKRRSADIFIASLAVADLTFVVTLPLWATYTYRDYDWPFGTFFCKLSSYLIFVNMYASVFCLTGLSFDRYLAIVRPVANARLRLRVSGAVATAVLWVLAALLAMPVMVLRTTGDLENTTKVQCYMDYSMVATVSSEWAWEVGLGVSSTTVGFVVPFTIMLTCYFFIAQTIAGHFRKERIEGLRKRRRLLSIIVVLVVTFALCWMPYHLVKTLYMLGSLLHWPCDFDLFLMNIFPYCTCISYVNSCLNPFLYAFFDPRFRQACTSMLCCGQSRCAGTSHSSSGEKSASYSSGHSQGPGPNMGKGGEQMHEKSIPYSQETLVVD

[4] = target: T4, 168 GPCRs (Homo sapiens, UniProt P18089); details: ADRA2B
T4 construct: host or cells: PathHunter cell lines
T4 sequence (P18089 1-450): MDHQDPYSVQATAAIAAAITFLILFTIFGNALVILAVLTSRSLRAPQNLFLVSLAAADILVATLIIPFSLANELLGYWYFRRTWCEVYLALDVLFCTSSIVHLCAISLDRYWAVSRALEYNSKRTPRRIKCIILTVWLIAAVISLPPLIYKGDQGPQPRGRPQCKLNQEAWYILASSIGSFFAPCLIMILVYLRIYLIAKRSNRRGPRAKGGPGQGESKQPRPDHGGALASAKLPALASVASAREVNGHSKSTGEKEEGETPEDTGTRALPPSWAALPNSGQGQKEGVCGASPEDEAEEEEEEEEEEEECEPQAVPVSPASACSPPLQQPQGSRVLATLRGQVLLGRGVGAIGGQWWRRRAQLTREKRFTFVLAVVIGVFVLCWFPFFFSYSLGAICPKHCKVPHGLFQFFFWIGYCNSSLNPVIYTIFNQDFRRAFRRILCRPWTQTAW

[5] = target: T5, 168 GPCRs (Homo sapiens, UniProt O95977)
T5 construct: host or cells: PathHunter cell lines
T5 sequence (O95977 1-384): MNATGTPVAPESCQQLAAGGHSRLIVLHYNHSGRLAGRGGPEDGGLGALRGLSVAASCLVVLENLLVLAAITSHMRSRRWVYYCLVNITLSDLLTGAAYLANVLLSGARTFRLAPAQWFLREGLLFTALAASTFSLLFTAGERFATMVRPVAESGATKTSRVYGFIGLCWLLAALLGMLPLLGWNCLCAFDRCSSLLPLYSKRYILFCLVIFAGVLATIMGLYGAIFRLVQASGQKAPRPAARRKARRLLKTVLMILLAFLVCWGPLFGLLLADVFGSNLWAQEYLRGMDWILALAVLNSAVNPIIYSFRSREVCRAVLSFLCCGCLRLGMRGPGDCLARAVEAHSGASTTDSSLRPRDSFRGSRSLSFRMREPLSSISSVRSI

[6] = target: T6, 168 GPCRs (Homo sapiens, UniProt P20309)
T6 construct: host or cells: PathHunter cell lines

[7] = target: T7, 168 GPCRs (Homo sapiens, UniProt P43119); details: PTGIR
T7 construct: host or cells: PathHunter cell lines

[8] = target: T8, 168 GPCRs (Homo sapiens, UniProt Q9HC97)
T8 construct: host or cells: PathHunter cell lines

[9] = target: T9, 168 GPCRs (Homo sapiens, UniProt P41145); details: OPRK1
T9 construct: host or cells: PathHunter cell lines
T9 sequence (P41145 whole entry): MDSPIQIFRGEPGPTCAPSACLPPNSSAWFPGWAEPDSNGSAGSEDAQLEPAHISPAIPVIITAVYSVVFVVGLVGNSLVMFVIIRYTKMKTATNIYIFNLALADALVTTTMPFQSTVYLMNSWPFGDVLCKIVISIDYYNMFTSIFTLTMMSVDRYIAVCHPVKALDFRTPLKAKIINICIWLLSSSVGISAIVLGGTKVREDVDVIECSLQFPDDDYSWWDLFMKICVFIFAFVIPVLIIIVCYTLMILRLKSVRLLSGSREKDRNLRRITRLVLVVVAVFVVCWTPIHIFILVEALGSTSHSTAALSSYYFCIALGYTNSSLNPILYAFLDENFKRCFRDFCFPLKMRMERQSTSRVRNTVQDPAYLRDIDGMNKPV

T6 sequence (P20309 whole entry): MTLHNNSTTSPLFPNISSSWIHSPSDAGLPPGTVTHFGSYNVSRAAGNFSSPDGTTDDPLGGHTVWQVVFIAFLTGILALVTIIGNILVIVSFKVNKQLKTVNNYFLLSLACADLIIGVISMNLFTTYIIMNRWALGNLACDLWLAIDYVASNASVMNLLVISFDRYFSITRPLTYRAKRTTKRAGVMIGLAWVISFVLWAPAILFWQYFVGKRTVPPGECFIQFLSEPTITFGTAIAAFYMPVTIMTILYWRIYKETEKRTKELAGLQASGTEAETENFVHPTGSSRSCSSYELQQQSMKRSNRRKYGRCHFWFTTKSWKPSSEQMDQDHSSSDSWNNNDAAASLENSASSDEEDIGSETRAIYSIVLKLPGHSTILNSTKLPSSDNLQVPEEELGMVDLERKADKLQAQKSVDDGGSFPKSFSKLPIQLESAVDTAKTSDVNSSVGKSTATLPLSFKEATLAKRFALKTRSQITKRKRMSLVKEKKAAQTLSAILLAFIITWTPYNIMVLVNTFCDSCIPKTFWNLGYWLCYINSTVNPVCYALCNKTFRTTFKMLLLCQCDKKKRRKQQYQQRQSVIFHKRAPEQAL
T8 sequence (Q9HC97 whole entry): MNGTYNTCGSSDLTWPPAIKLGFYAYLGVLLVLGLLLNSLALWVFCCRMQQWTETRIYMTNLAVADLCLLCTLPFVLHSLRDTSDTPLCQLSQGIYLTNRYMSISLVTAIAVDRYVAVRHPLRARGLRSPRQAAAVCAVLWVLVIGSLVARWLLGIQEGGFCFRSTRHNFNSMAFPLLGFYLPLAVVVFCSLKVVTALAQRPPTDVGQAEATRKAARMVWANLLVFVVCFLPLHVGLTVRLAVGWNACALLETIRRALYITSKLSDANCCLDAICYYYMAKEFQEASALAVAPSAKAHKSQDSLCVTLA
T1 sequence (P41231 whole entry): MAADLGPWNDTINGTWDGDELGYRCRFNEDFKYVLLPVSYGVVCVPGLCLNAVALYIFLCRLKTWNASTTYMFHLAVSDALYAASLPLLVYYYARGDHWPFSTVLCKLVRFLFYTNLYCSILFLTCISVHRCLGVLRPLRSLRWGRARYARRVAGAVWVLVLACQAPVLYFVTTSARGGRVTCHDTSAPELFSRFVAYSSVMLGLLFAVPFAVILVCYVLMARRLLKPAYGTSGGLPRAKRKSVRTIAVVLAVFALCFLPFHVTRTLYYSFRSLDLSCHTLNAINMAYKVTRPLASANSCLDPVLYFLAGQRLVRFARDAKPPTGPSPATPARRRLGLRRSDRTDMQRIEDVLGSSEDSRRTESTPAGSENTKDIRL
T7 sequence (P43119 whole entry): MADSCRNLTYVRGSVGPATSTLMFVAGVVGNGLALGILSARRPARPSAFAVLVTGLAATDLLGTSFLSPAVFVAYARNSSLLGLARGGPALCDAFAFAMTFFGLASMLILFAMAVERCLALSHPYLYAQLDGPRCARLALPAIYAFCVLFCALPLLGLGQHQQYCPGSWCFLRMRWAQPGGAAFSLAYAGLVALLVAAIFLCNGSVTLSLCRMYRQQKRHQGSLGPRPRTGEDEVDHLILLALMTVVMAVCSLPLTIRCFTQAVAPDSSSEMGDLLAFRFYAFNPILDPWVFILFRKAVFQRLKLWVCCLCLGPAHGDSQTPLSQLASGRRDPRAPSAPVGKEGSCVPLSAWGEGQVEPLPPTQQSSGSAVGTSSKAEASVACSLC
T2 sequence (P51582 whole entry): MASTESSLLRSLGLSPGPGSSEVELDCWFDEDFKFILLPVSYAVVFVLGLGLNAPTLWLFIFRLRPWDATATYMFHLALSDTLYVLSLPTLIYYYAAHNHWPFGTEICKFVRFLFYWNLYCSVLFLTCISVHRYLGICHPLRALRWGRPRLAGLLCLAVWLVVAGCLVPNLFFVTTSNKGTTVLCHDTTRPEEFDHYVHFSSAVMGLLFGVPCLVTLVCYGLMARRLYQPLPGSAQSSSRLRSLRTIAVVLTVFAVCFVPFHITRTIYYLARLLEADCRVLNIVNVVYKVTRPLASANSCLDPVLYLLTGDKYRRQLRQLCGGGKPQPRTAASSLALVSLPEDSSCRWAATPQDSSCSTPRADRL

Structure (SMILES)	% Agonist Activity ([1]; Conc 1 uM)	% Antagonist Activity ([1]; Conc 1 uM)	% Agonist Activity ([1]; Conc 10 uM)	% Antagonist Activity ([1]; Conc 10 uM)	% Agonist Activity ([2]; Conc 1 uM)	% Antagonist Activity ([2]; Conc 1 uM)	% Agonist Activity ([2]; Conc 10 uM)	% Antagonist Activity ([2]; Conc 10 uM)	% Agonist Activity ([3]; AGTRL1, 1 uM)	% Antagonist Activity ([3]; AGTRL1, 1 uM)	% Agonist Activity ([3]; AGTRL1, 10 uM)	% Antagonist Activity ([3]; AGTRL1, 10 uM)	% Agonist Activity ([4]; 1 uM)	% Antagonist Activity ([4]; 1 uM)	% Agonist Activity ([4]; 10 uM)	% Antagonist Activity ([4]; 10 uM)	% Agonist Activity ([5]; EDG6, 1 uM)	% Antagonist Activity ([5]; EDG6, 1 uM)	% Agonist Activity ([5]; EDG6, 10 uM)	% Antagonist Activity ([5]; EDG6, 10 uM)	also measured
CNC(C)C(=O)c1ccc2c(c1)OCO2 (stereo not drawn) [methylone]	-2.1%	5.4%	-2.7%	1.8%	-3.3%	15.1%	-4.1%	17.5%	-0.9%	-3.3%	-1.5%	-4.1%	-1%	8.5%	1.3%	6.3%	-1.7%	13.2%	-0.3%	7.8%	% Agonist Activity ([6]; CHRM3, 1 uM): 6%; % Antagonist Activity ([6]; CHRM3, 1 uM): -5.5%; % Agonist Activity ([6]; CHRM3, 10 uM): 6%; % Antagonist Activity ([6]; CHRM3, 10 uM): 14.6%; % Agonist Activity ([7]; Conc 1 uM): -4.4%; % Antagonist Activity ([7]; Conc 1 uM): 12.4%; % Agonist Activity ([7]; Conc 10 uM): -2.3%; % Antagonist Activity ([7]; Conc 10 uM): -21.5%; % Agonist Activity ([8]; GPR35, 1 uM): 2.2%; % Antagonist Activity ([8]; GPR35, 1 uM): 13.2%; % Agonist Activity ([8]; GPR35, 10 uM): 2.5%; % Antagonist Activity ([8]; GPR35, 10 uM): 7.3%; % Agonist Activity ([9]; Conc 1 uM): -6.3%; % Antagonist Activity ([9]; Conc 1 uM): 11.8%; % Agonist Activity ([9]; Conc 10 uM): -4.1%; % Antagonist Activity ([9]; Conc 10 uM): 10.4%
CNC(C)Cc1ccc2c(c1)OCO2 (stereo not drawn) [MDMA, 3,4-Methylenedioxy methamphetamine, reference compound]	6.6%	11.5%	7.8%	9.6%	-4.2%	5.7%	-7.2%	-0.6%	-0.8%	-13.4%	-0.2%	-8.4%	5.2%	12.8%	1.3%	2.9%	6.3%	14.1%	4%	18%	% Agonist Activity ([6]; CHRM3, 1 uM): 5.1%; % Antagonist Activity ([6]; CHRM3, 1 uM): -9.4%; % Agonist Activity ([6]; CHRM3, 10 uM): 4.3%; % Antagonist Activity ([6]; CHRM3, 10 uM): 1.4%; % Agonist Activity ([7]; Conc 1 uM): 2.3%; % Antagonist Activity ([7]; Conc 1 uM): 18.8%; % Agonist Activity ([7]; Conc 10 uM): 8.6%; % Antagonist Activity ([7]; Conc 10 uM): 22.7%; % Agonist Activity ([8]; GPR35, 1 uM): 0.3%; % Antagonist Activity ([8]; GPR35, 1 uM): -1.1%; % Agonist Activity ([8]; GPR35, 10 uM): -1.5%; % Antagonist Activity ([8]; GPR35, 10 uM): 4.6%; % Agonist Activity ([9]; Conc 1 uM): 1.7%; % Antagonist Activity ([9]; Conc 1 uM): 16.7%; % Agonist Activity ([9]; Conc 10 uM): 0.5%; % Antagonist Activity ([9]; Conc 10 uM): 18.1%
